Tested on: antibodies directed against the HCV Core, NS3 and NS4 proteins
Assay: Vidas anti-HCV antibody immunoenzymatic test (Operating Mode 1) carried out with interfering peptide added
Parameters: species or system human; key to Index: signal / standard S1 value; index ≥1 positive, <1 negative
Details: for Index: pos indices ≧1
Protocol: The disposable tip (SPR®) acts both as a solid phase and as a pipetting system. The surface of the tip is coated with antigens for the detection of antibodies directed against the HCV Core, NS3 and NS4 proteins. In a first step, the sample is diluted, and then suctioned up and down inside the tip. The anti-HCV antibodies present in the sample will bind to the antigens present inside the tip. Washing steps remove the unbound compounds. During the second step, (mouse) anti-human immunoglobulin (anti-IgG) monoclonal IgGs in Fab′ form, conjugated to recombinant alkaline phosphatase, are suctioned up and down inside the tip and will bind to the anti-HCV human Igs from the sample tested, bound to the antigens of the solid phase. Washing steps again remove the unbound compounds. […] The value of the fluorescence signal is proportional to the concentration of the antibody present in the sample. At the end of the test, the results are calculated automatically in the form of an index by the instrument, by dividing the value obtained by the value of the standard S1 brought back to 1 (value stored in the instrument). Thus, a sample of which the index is greater than or equal to 1 is considered to be positive by the immunoenzymatic test (presence of anti-HCV antibodies) and a sample of which the index is less than 1 is considered to be negative (absence of anti-HCV antibodies). In the paragraphs which follow, this HCV-antibody assay procedure will be referred to as “Operating Mode 1”, which corresponds to the assaying of anti-HCV antibodies without interfering peptide.
Several hundred serum samples, negative for HCV infection and originating from the Rhône-Alpes “Centres de Transfusion Sanguine” [Blood Banks], were screened in order to identify the samples which posed an interference problem. To do this, the samples were assayed according to Operating Mode 1 using the Vidas automated device. Only the sera that were positive according to Operating Mode 1 (index ≧1) were selected.
Such a difference between the result of Operating Mode 1 and that of the negative status established by the “Centres de Transfusion Sanguine” [Blood Banks] makes it possible to select the false-positive sera posing an interference problem.
Table 1 gives, for seven sera posing an interference problem and for the positive control C1, the results of assays carried out according to “Operating Mode 1” with or without the presence of the peptide V7E (SEQ ID No 2) or of the peptide Y7E (SEQ ID No 1). These peptides were added at a concentration of 5 μg/ml during the first step of the immunoenzymatic test protocol which corresponds to the dilution of the sample to be tested and the incubation thereof with the antigens present on the solid phase.
Likewise, table 2 gives, for two other sera posing an interference problem and for the positive control, the results of assays carried out according to Operating Mode 1 of the anti-HCV antibody detection protocol, with or without the presence of the peptide E8E (SEQ ID No 4), of the peptide A8E (SEQ ID No 3), or else of the peptide A6M (SEQ ID No 9). These peptides were added at a concentration of 1 μg/ml during the first step of the immunoenzymatic test protocol, which corresponds to the dilution of the sample to be tested, and the incubation thereof with the antigens present on the solid phase.

[1] = false-positive serum 295 (sample with interference), peptide 1 μg/ml in first step
[2] = false-positive serum F25 (sample with interference), peptide 1 μg/ml in first step
[3] = positive control C1 (commercial serum pool), peptide 1 μg/ml in first step
[4] = two sera posing an interference problem, peptide 1 μg/ml
[5] = false-positive serum 175 1811 (sample with interference), peptide 5 μg/ml in first step
[6] = false-positive serum 284 2408 (sample with interference), peptide 5 μg/ml in first step
[7] = false-positive serum 498 (sample with interference), peptide 5 μg/ml in first step
[8] = false-positive serum 801 1409 (sample with interference), peptide 5 μg/ml in first step
[9] = false-positive serum F53 3009 (sample with interference), peptide 5 μg/ml in first step
[10] = false-positive serum H48 (sample with interference), peptide 5 μg/ml in first step
[11] = false-positive serum M43 (sample with interference), peptide 5 μg/ml in first step
[12] = positive control C1 (commercial serum pool), peptide 5 μg/ml in first step
[13] = seven sera posing an interference problem, peptide 5 μg/ml

Sequence | Index [1] | Index [2] | Index [3] | sera in which the interference is neutralized [4] | Index [5] | Index [6] | Index [7] | Index [8] | Index [9] | Index [10] | Index [11] | Index [12] | sera in which the interference is neutralized [13]
APYIEKGM (Streptococcus) [A6M, Streptococcus pneumoniae peptide, not according to the invention, used as a negative control, reference compound] | 1.04 | 2.90 | 3.05 | does not make it possible to neutralize the interference, in any of the sera | – | – | – | – | – | – | – | – | –
YSPTHYVPE (staphylococcus) [Y7E] | – | – | – | – | 0.47 | 0.86 | 0.14 | 0.71 | 0.32 | 0.88 | 0.17 | 3.02 | totally neutralize the interference in all the sera
ECSQHLPYIE (HCV) [E8E, amino acids 53-54 of HCV NS4A fused to amino acids 1-8 of HCV NS4B] | 0.90 | 0.85 | 2.92 | 2/2 | – | – | – | – | – | – | – | – | –
AQKRLAPYIE (Streptoccus) [A8E, amino acids 64-73 of Streptococcus pneumoniae ribosomal small subunit methyltransferase H protein] | 0.95 | 0.41 | 3.02 | 2/2 | – | – | – | – | – | – | – | – | –
VSPTHYVPE (HCV) [V7E, amino acids 218-226 of the NS4B protein of HCV] | – | – | – | – | 0.49 | 1.51 | 0.35 | 1.04 | 0.39 | 1.17 | 0.42 | 3.06 | 4/7

— patent publication US9606120B2, “Interfering peptides and method for detecting microorganisms” (BIOMÉRIEUX, priority 2012, dated 2017)
